Here are results for 6 compounds from ChEMBL document CHEMBL1123668, “Inhibition of aspartic proteinases by peptides containing lysine and ornithine side-chain analogues of statine” (J Med Chem, 1987).

A short description of assay [1]: Compound was evaluated for the inhibition of […] penicillopepsin; Value is time-dependent inhibition (TDI) with T1/2 > 30 s).
Assay [2] has as its target T1, Rhizopuspepsin (Rhizopus microsporus var. chinensis, UniProt P06026).
T1 sequence (P06026 whole entry): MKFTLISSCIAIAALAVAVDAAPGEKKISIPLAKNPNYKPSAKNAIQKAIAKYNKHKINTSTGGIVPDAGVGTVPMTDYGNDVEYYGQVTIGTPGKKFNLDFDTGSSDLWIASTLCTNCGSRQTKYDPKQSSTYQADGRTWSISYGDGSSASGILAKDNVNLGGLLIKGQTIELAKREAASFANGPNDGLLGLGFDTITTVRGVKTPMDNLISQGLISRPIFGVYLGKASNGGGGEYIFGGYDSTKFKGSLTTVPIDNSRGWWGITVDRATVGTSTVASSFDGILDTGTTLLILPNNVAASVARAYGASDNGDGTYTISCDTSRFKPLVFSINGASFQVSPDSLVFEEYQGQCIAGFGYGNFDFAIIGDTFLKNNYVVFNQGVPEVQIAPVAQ
Description: Inhibition of Rhizopus chinensis pepsin.

A short description of assay [3]: Compound was evaluated for the inhibition of […] penicillopepsin; ( Value is time-dependent inhibition (TDI) with T1/2 > 30 s.).
The nature of assay [4]: Compound was evaluated for the inhibition of porcine penicillopepsin.
For assay [5], the target named is Pepsin A (Sus scrofa, UniProt P00791). The assay can be described thus: Compound was evaluated for the inhibition of porcine pepsin.

pKi: −log10 of the molar value. Square brackets hold non-standard residues; d marks the D form. Peptide text beside a SMILES is read from it. * marks the point of attachment. ξ: configuration not given here. Sta = CC(C)C[C@H](N)[C@@H](O)CC(=O)O; Isovaleryl = CC(C)CC(=O)*; ξF = NC(Cc1ccccc1)C(=O)O

What is called pKi is −log10 of the Ki, conventionally taken in molar units. Higher therefore signals a low Ki.

Sequence of Pepsin A (P00791 whole entry): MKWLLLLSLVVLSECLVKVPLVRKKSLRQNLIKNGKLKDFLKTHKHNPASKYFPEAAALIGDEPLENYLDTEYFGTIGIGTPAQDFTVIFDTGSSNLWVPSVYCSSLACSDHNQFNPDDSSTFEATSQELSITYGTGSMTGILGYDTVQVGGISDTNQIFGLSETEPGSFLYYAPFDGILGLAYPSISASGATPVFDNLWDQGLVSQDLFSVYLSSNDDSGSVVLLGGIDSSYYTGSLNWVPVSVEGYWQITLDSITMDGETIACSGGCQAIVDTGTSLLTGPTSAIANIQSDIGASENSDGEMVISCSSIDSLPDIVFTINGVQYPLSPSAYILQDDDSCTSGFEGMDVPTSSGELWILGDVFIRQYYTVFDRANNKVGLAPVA

On to `CCOC(=O)CC(O)[C@H](CCCN)NC(=O)[C@H](NC(=O)C(NC(=O)CC(C)C)C(C)C)C(C)C` (stereo partly specified), for which the negative-log Ki (pKi) in assay [1] was 8.96; in assay [2] it was 7.33.

`COC(=O)C(Cc1ccccc1)NC(=O)C[C@H](O)[C@H](CCCCN)NC(=O)[C@H](NC(=O)C(NC(=O)CC(C)C)C(C)C)C(C)C` (stereo partly specified) had a pKi in assay [3] of 10.10.

As to `CCOC(=O)C[C@H](O)[C@H](CCCCNC(C)=O)NC(=O)[C@H](NC(=O)C(NC(=O)CC(C)C)C(C)C)C(C)C` (stereo partly specified), the pKi is 7.00 in assay [4], 7.54 in assay [2] and 5.72 in assay [5].

On to `CCOC(=O)C[C@H](O)[C@H](CCCCN)NC(=O)[C@H](NC(=O)C(NC(=O)CC(C)C)C(C)C)C(C)C` (stereo partly specified), for which, in assay [2], the pKi is 7.48.

Regarding `COC(=O)C(Cc1ccccc1)NC(=O)C[C@H](O)[C@H](CC(C)C)NC(=O)[C@@H](NC(=O)[C@@H](NC(=O)CC(C)C)C(C)C)C(C)C` (stereo partly specified) (Isovaleryl-VV[Sta][ξF]-OMe), the pKi in assay [3] was 8.89; in assay [2] it was 7.96.

In the case of `CCOC(=O)C[C@H](O)[C@H](CC(C)C)NC(=O)[C@@H](NC(=O)[C@@H](NC(=O)CC(C)C)C(C)C)C(C)C` (Isovaleryl-Val-Val-[Sta]-OEt), the negative logarithm of the Ki (pKi) in assay [4] was 7.33; in assay [2], 7.38.
